Measured values published in patent US20250161262A1, “Pharmaceutical Compositions and Methods for Treating Covid” (priority 2022, published 2025).
Values after ≈ are worked out from the molar mass of the structure shown.

Experiments:
MERS coronavirus = MERS coronavirus patients; cited from earlier work
Norovirus = Norovirus tests; assay type: cell-based; settings: one of the Norovirus tests; read-out: ECso
Text: (§1) It is important to understand that mycophenolic acid's anti-viral effect is likely to require a small fraction (about 1-2% or less) of the clinical dose which is approved and commonly used for prevention of transplant rejection. For instance, Chan et al., 2013, p. […] For instance, in one of the Norovirus tests we document here, ECso of 0.151 mcg/mL was reported. Even less mycophenolic acid would be needed to treat viruses such as Influenza A HNI and RSV in which we report ECso <0.10 mcg/ml. Dramatically lower doses may suffice for mycophenolic acid. Therefore, it is not only possible to achieve adequate body levels of mycophenolic acid to treat these viruses clinically, but also a small fraction of the current clinical dose may be more than adequate. To et al, 2016 also presented data on page 1812 supporting these conclusions.

Influenza A HNI = assay: antiviral EC50 against Influenza A; assay type: cell-based; settings: Influenza A virus, read-out: ECso
RSV = assay: antiviral EC50 against RSV; assay type: cell-based; settings: human respiratory syncytial virus, read-out: ECso
Text: as §1

[1] = tested on: Influenza A(H1N1) strain A/WSN/1933; settings: Chan et al. (2013); cited from earlier work
[2] = tested on: pandemic flu H/415, A/Hong Kong/415742/2009, A(HINI)pdm09; settings: To et al. (2016); cited from earlier work
[3] = tested on: seasonal influenza A(H3N2) virus; settings: To et al. (2016); cited from earlier work
[4] = tested on: avian-origin influenza A (H7N9); settings: To et al. (2016); cited from earlier work
virus = settings: cited from earlier work

Compound | mortality (MERS coronavirus) | EC50 (Norovirus) | EC50 (Influenza A HNI) | EC50 (RSV) | effectiveness against virus [1] | effectiveness against virus [2] | effectiveness against virus [3] | effectiveness against virus [4] | EC so (virus; Chan et al., 2013, p. 612) | local concentrations at usual clinical doses, greater than needed (virus; usual clinical doses of mycophenolic acid, Chan et al., 2013)
COc1c(C)c2c(c(O)c1C/C=C(\C)CCC(=O)OCCN1CCOCC1)C(=O)OC2 [mycophenolate mofetil, 2-morpholinoethyl ester of mycophenolic acid] | no mortality | – | – | – | – | – | – | – | – | –
COc1c(C)c2c(c(O)c1C/C=C(\C)CCC(=O)O)C(=O)OC2 [mycophenolic acid, 6-(4-hydroxy-6-methoxy-7-methyl-3-oxo-1,3-dihydroisobenzofuran-5-yl)-4-methyl-hex-4-enoic acid] | – | 0.151 µg/mL (≈ 0.471 µM) | < 0.1 µg/mL | < 0.1 µg/mL | effectiveness | effective | effective | effective | 0.17 µg/mL | 60-300 ×
